Data reported in patent publication US11230538B2, “Herbicides” (SYNGENTA PARTICIPATIONS AG, priority 2016, dated 2022).

What was measured:
Assay type in all cases: in vivo
[1] = system: Alopecurus myosuroides (ALOMY); assay: B1 Pre-emergence herbicidal activity; set-up: key: 5=total damage to plant; 0=no damage to plant; settings: pre-emergence application, rate 1000 g/ha, evaluated after 13 days
Experimental: (§1) Seeds of a variety of test species were sown in standard soil in pots: Triticum aestivium (TRZAW), Avena fatua (AVEFA), Alopecurus myosuroides (ALOMY), Echinochloa crus-galli (ECHCG), Lolium perenne (LOLPE), Zea Mays (ZEAMX), Abutilon theophrasti (ABUTH), Amaranthus retroflexus (AMARE) and Setaria fabenr (SETFA). After cultivation for one day (pre-emergence) under controlled conditions in a glasshouse (at 24/16° C., day/night; 14 hours light; 65% humidity), the plants were sprayed with an aqueous spray solution derived from the formulation of the technical active ingredient in acetone I water (50:50) solution containing 0.5% Tween 20 (polyoxyethelyene sorbitan monolaurate, CAS RN 9005-64-5). The test plants were then grown in a glasshouse under controlled conditions (at 24/16° C., day/night; 14 hours light; 65% humidity) and watered twice daily. After 13 days, the test was evaluated (5=total damage to plant; 0=no damage to plant).

Avena fatua (AVEFA) [2] = assay: B1 Pre-emergence herbicidal activity; set-up: key: 5=total damage to plant; 0=no damage to plant; settings: pre-emergence application, rate 1000 g/ha, evaluated after 13 days
Experimental: as §1

[3] = system: Triticum aestivium (TRZAW); assay: B1 Pre-emergence herbicidal activity; set-up: key: 5=total damage to plant; 0=no damage to plant; settings: pre-emergence application, rate 1000 g/ha, evaluated after 13 days
Experimental: as §1

[4] = system: Echinochloa crus-galli (ECHCG); assay: B1 Pre-emergence herbicidal activity; set-up: key to Pre-emergence herbicidal activity, ECHCG (damage score 0-5): 5=total damage to plant; 0=no damage to plant; settings: pre-emergence application, rate 1000 g/ha, evaluated after 13 days
Experimental: as §1

Lolium perenne (LOLPE) [5] = assay: B1 Pre-emergence herbicidal activity; set-up: key to Pre-emergence herbicidal activity, LOLPE (damage score 0-5): 5=total damage to plant; 0=no damage to plant; settings: pre-emergence application, rate 1000 g/ha, evaluated after 13 days
Experimental: as §1

Setaria fabenr (SETFA) = assay: B1 Pre-emergence herbicidal activity; set-up: key to Pre-emergence herbicidal activity, SETFA (damage score 0-5): 5=total damage to plant; 0=no damage to plant; settings: pre-emergence application, rate 1000 g/ha, evaluated after 13 days
Experimental: as §1

Avena fatua (AVEFA) [6] = assay: B2 Post-emergence herbicidal activity; settings: post-emergence application, rate 1000 g/ha, evaluated after 13 days
Experimental: (§2) Seeds of a variety of test species were sown in standard soil in pots: Triticum aestivium (TRZAW), Avena fatua (AVEFA), Alopecurus myosuroides (ALOMY), Echinochloa crus-galli (ECHCG), Lolium perenne (LOLPE), Zea Mays (ZEAMX), Abutilon theophrasti (ABUTH), Amaranthus retroflexus (AMARE) and Setaria fabenri (SETFA). After 8 days cultivation (post-emergence) under controlled conditions in a glasshouse (at 24/16° C., day/night; 14 hours light; 65% humidity), the plants were sprayed with an aqueous spray solution derived from the formulation of the technical active ingredient in acetone I water (50:50) solution containing 0.5% Tween 20 (polyoxyethelyene sorbitan monolaurate, CAS RN 9005-64-5). The test plants were then grown in a glasshouse under controlled conditions (at 24/16° C., day/night; 14 hours light; 65% humidity) and watered twice daily. After 13 days, the test was evaluated (5=total damage to plant; 0=no damage to plant).

[7] = system: Echinochloa crus-galli (ECHCG); assay: B2 Post-emergence herbicidal activity; set-up: key to Post-emergence herbicidal activity, ECHCG (damage score 0-5): 5=total damage to plant; 0=no damage to plant; settings: post-emergence application, rate 1000 g/ha, evaluated after 13 days
Experimental: as §2

Lolium perenne (LOLPE) [8] = assay: B2 Post-emergence herbicidal activity; set-up: key to Post-emergence herbicidal activity, LOLPE (damage score 0-5): 5=total damage to plant; 0=no damage to plant; settings: post-emergence application, rate 1000 g/ha, evaluated after 13 days
Experimental: as §2

[9] = system: Alopecurus myosuroides (ALOMY); assay: B2 Post-emergence herbicidal activity; set-up: key: 5=total damage to plant; 0=no damage to plant; settings: post-emergence application, rate 1000 g/ha, evaluated after 13 days
Experimental: as §2

Setaria fabenri (SETFA) = assay: B2 Post-emergence herbicidal activity; set-up: key: 5=total damage to plant; 0=no damage to plant; settings: post-emergence application, rate 1000 g/ha, evaluated after 13 days
Experimental: as §2

[10] = system: Triticum aestivium (TRZAW); assay: B2 Post-emergence herbicidal activity; set-up: key: 5=total damage to plant; 0=no damage to plant; settings: post-emergence application, rate 1000 g/ha, evaluated after 13 days
Experimental: as §2

| SMILES | Pre-emergence herbicidal activity, ALOMY (damage score 0-5) [1] | Pre-emergence herbicidal activity, AVEFA (damage score 0-5) (Avena fatua (AVEFA) [2]) | Pre-emergence herbicidal activity, TRAZW (damage score 0-5) [3] | Pre-emergence herbicidal activity, ECHCG (damage score 0-5) [4] | Pre-emergence herbicidal activity, LOLPE (damage score 0-5) (Lolium perenne (LOLPE) [5]) | Pre-emergence herbicidal activity, SETFA (damage score 0-5) (Setaria fabenr (SETFA)) | Post-emergence herbicidal activity, AVEFA (damage score 0-5) (Avena fatua (AVEFA) [6]) | Post-emergence herbicidal activity, ECHCG (damage score 0-5) [7] | Post-emergence herbicidal activity, LOLPE (damage score 0-5) (Lolium perenne (LOLPE) [8]) | Post-emergence herbicidal activity, ALOMY (damage score 0-5) [9] | Post-emergence herbicidal activity, SETFA (damage score 0-5) (Setaria fabenri (SETFA)) | Post-emergence herbicidal activity, TRAZW (damage score 0-5) [10] |
| --- | --- | --- | --- | --- | --- | --- | --- | --- | --- | --- | --- | --- |
| Cc1nc(-c2cncc(F)c2)ccc1N(C(=O)C(C)C)C(=O)C(C)C [Compound C1] | 0 | 2 | 1 | 5 | 1 | 5 | 3 | 5 | 4 | 1 | 5 | 1 |
| Cc1nc(-c2cncnc2)ccc1NC(=O)C(C)C [Compound C2, 2-methyl-N-(2-methyl-6-pyrimidin-5-yl-3-pyridyl)propanamide] | 0 | 0 | 0 | 3 | 1 | 5 | 3 | 5 | 2 | 1 | 5 | 1 |
| Cc1nc(-c2cncc(F)c2)ccc1NC(=O)C(C)C [Compound C3] | 0 | 0 | 0 | 4 | 1 | 5 | 3 | 5 | 3 | 1 | 5 | 1 |
| CC(C)C(=O)N(C)c1ccc(-c2cncc(F)c2)nc1C(F)(F)F [Compound C4, N-[6-(5-fluoro-3-pyridyl)-2-(trifluoromethyl)-3-pyridyl]-N,2-dimethyl-propanamide] | 0 | 1 | 0 | 4 | 5 | 1 | 4 | 4 | 5 | 1 | 3 | 1 |
| CC(=O)N(C(C)=O)c1ccc(-c2cncc(F)c2)nc1C(F)(F)F [Compound C5, N-acetyl-N-[6-(5-fluoro-3-pyridyl)-2-(trifluoromethyl)-3-pyridyl]acetamide] | 1 | 3 | 0 | 4 | 1 | 5 | 4 | 4 | 4 | 1 | 5 | 0 |
| O=C(Nc1ccc(-c2cncnc2)nc1C(F)(F)F)c1ccccc1 [Compound C17] | 0 | 3 | 0 | 4 | 1 | 5 | 3 | 5 | 2 | 0 | – | 0 |
| O=C(CC1CCCCC1)Nc1ccc(-c2cncc(F)c2)nc1C(F)(F)F [Compound C19] | 0 | 2 | 0 | 3 | 0 | 5 | 3 | 4 | 1 | 0 | – | 0 |
| O=C(Nc1ccc(-c2cncc(F)c2)nc1C(F)(F)F)C1CCCCC1 [Compound C20] | 0 | 2 | 0 | 4 | 0 | 5 | 3 | 4 | 2 | 0 | – | 0 |
| O=C(Nc1ccc(-c2cncc(F)c2)nc1C(F)(F)F)C1CCC1 [Compound C21] | 0 | 2 | 0 | 4 | 1 | 5 | 3 | 5 | 2 | 0 | – | 0 |
| CCCC(=O)Nc1ccc(-c2cncc(F)c2)nc1C(F)(F)F [Compound C22] | 0 | 2 | 0 | 4 | 1 | 5 | 3 | 4 | 2 | 0 | – | 0 |
| CCC(=O)Nc1ccc(-c2cncnc2)nc1C#N [Compound C116] | 0 | 1 | – | 3 | 0 | 5 | 2 | 4 | 1 | 0 | 5 | 0 |
